Data reported in ChEMBL document CHEMBL1201862, “PubChem BioAssay data set” (2004).
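A five-concentration, 48-hour dose response in 96-well plates underlies each endpoint, interpolated linearly between surrounding concentrations. Here, GI50 denotes the concentration required for 50% inhibition of growth.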 Activity calls are given as the source filed them. Cut-off read from the data, not from the text of the source: active = GI50 up to about 1.1 µM and inactive = higher.

How the values were obtained:
Test in all cases: NCI tumour cell line growth inhibition, 48 h
786-0 = system: 786-0
A498 = system: A498
A549 = system: A549
ACHN = system: ACHN
CAKI-1 = system: CAKI-1
COLO 205 = system: COLO 205
DLD-1 = system: DLD-1
DMS-114 = system: DMS-114
DMS-273 = system: DMS-273
EKVX = system: EKVX
HCC 2998 = system: HCC 2998
HCT-116 = system: HCT-116
HCT-15 = system: HCT-15
HL-60 = system: HL-60
HOP-18 = system: HOP-18
HOP-62 = system: HOP-62
HOP-92 = system: HOP-92
HT-29 = system: HT-29
IGROV-1 = system: IGROV-1
K562 = system: K562
KM-20L2 = system: KM-20L2
KM12 = system: KM12
M14 = system: M14
MOLT-4 = system: MOLT-4
Malme-3M = system: Malme-3M
NCI-H226 = system: NCI-H226
NCI-H23 = system: NCI-H23
NCI-H460 = system: NCI-H460
NCI-H522 = system: NCI-H522
OVCAR-3 = system: OVCAR-3
OVCAR-4 = system: OVCAR-4
OVCAR-5 = system: OVCAR-5
OVCAR-8 = system: OVCAR-8
RPMI-8226 = system: RPMI-8226
RXF 393 = system: RXF 393
RXF 631 = system: RXF 631
SF-268 = system: SF-268
SF-295 = system: SF-295
SF-539 = system: SF-539
SK-MEL-2 = system: SK-MEL-2
SK-MEL-5 = system: SK-MEL-5
SK-OV-3 = system: SK-OV-3
SN12C = system: SN12C
SNB-19 = system: SNB-19
SNB-75 = system: SNB-75
SNB-78 = system: SNB-78
SR = system: SR
SW-620 = system: SW-620
TK-10 = system: TK-10
U-251 = system: U-251
UACC-257 = system: UACC-257
UACC-62 = system: UACC-62
UO-31 = system: UO-31
XF498 = system: XF498
LOX IMVI = system: LOX IMVI
LXFL 529 = system: LXFL 529
M19-MEL = system: M19-MEL
SK-MEL-28 = system: SK-MEL-28

How did the GI50 (786-0) turn out when `COC1CCC(OC)C(C2(C3CC(OC)CCC3OC)OC(=O)c3ccccc32)C1` (stereo unspecified) was run?
The GI50 was > 100 µM (inactive).

And the GI50 (A498)?
Its GI50 is > 100 µM (inactive).

And the GI50 (A549)?
Its GI50 is > 100 µM (inactive).

And the GI50 (ACHN)?
Its GI50 is > 100 µM (inactive).

What about the GI50 (CAKI-1) of the same molecule?
Its GI50 is > 100 µM (inactive).

What about the GI50 (COLO 205) of the same molecule?
Its GI50 is 28.8 µM (inactive).

What about the GI50 (DLD-1) of the same molecule?
The GI50 was > 100 µM (inactive).

What about the GI50 (DMS-114) of the same molecule?
Its GI50 is 55.7 µM (inactive).

What about the GI50 (DMS-273) of the same molecule?
Its GI50 is 22.6 µM (inactive).

And the GI50 (EKVX)?
The GI50 was 60.8 µM (inactive).

What about the GI50 (HCC 2998) of the same molecule?
The GI50 was 66.4 µM (inactive).

What about the GI50 (HCT-116) of the same molecule?
Its GI50 is > 100 µM (inactive).

What about the GI50 (HCT-15) of the same molecule?
Its GI50 is 37 µM.

And the GI50 (HL-60)?
The GI50 was 13.7 µM (inactive).

What about the GI50 (HOP-18) of the same molecule?
Its GI50 is > 100 µM (inactive).

What about the GI50 (HOP-62) of the same molecule?
The GI50 was > 100 µM (inactive).

What about the GI50 (HOP-92) of the same molecule?
Its GI50 is > 100 µM (inactive).

And the GI50 (HT-29)?
The GI50 was 33.8 µM (inactive).

What about the GI50 (IGROV-1) of the same molecule?
Its GI50 is 68.4 µM (inactive).

And the GI50 (K562)?
Its GI50 is 22.2 µM (inactive).

What about the GI50 (KM-20L2) of the same molecule?
Its GI50 is 44.2 µM (inactive).

What about the GI50 (KM12) of the same molecule?
Its GI50 is 38.9 µM (inactive).

What about the GI50 (M14) of the same molecule?
The GI50 was 64.7 µM (inactive).

And the GI50 (MOLT-4)?
The GI50 was 14.6 µM (inactive).

What about the GI50 (Malme-3M) of the same molecule?
The GI50 was > 100 µM (inactive).

What about the GI50 (NCI-H226) of the same molecule?
Its GI50 is 86.7 µM (inactive).

What about the GI50 (NCI-H23) of the same molecule?
Its GI50 is 80.7 µM (inactive).

What about the GI50 (NCI-H460) of the same molecule?
Its GI50 is 86.3 µM (inactive).

And the GI50 (NCI-H522)?
Its GI50 is 6.85 µM (inactive).

And the GI50 (OVCAR-3)?
The GI50 was 75.9 µM (inactive).

What about the GI50 (OVCAR-4) of the same molecule?
The GI50 was 70.8 µM (inactive).

And the GI50 (OVCAR-5)?
The GI50 was > 100 µM (inactive).

And the GI50 (OVCAR-8)?
Its GI50 is > 100 µM (inactive).

What about the GI50 (RPMI-8226) of the same molecule?
The GI50 was 19.8 µM (inactive).

And the GI50 (RXF 393)?
Its GI50 is > 100 µM (inactive).

And the GI50 (RXF 631)?
Its GI50 is > 100 µM (inactive).

And the GI50 (SF-268)?
The GI50 was > 100 µM (inactive).

What about the GI50 (SF-295) of the same molecule?
The GI50 was 82.2 µM (inactive).

What about the GI50 (SF-539) of the same molecule?
Its GI50 is > 100 µM (inactive).

And the GI50 (SK-MEL-2)?
The GI50 was 93.8 µM (inactive).

What about the GI50 (SK-MEL-5) of the same molecule?
The GI50 was 26.4 µM (inactive).

What about the GI50 (SK-OV-3) of the same molecule?
The GI50 was > 100 µM (inactive).

What about the GI50 (SN12C) of the same molecule?
Its GI50 is > 100 µM (inactive).

And the GI50 (SNB-19)?
The GI50 was > 100 µM (inactive).

And the GI50 (SNB-75)?
The GI50 was > 100 µM (inactive).

What about the GI50 (SNB-78) of the same molecule?
Its GI50 is > 100 µM (inactive).

What about the GI50 (SR) of the same molecule?
The GI50 was 9.16 µM (inactive).

What about the GI50 (SW-620) of the same molecule?
The GI50 was 59.2 µM (inactive).

And the GI50 (TK-10)?
The GI50 was > 100 µM (inactive).

And the GI50 (U-251)?
Its GI50 is 93.8 µM (inactive).

And the GI50 (UACC-257)?
Its GI50 is > 100 µM (inactive).

And the GI50 (UACC-62)?
The GI50 was 94.8 µM (inactive).

What about the GI50 (UO-31) of the same molecule?
Its GI50 is 70.3 µM (inactive).

And the GI50 (XF498)?
The GI50 was 76.4 µM (inactive).

Which GI50 (786-0) does the source give for `O=c1nc(NC(c2ccccc2)(c2ccccc2)c2ccccc2)ccn1CCCl` here?
Its GI50 is 18.1 µM (inactive).

And the GI50 (A498)?
The GI50 was 64.7 µM (inactive).

What about the GI50 (A549) of the same molecule?
The GI50 was 30 µM (inactive).

What about the GI50 (ACHN) of the same molecule?
Its GI50 is 27.8 µM (inactive).

What about the GI50 (COLO 205) of the same molecule?
The GI50 was 25.6 µM (inactive).

What about the GI50 (DLD-1) of the same molecule?
Its GI50 is 35.3 µM (inactive).

And the GI50 (DMS-114)?
The GI50 was 14.5 µM (inactive).

And the GI50 (EKVX)?
Its GI50 is 26.9 µM (inactive).

What about the GI50 (HCC 2998) of the same molecule?
Its GI50 is 14.9 µM (inactive).

What about the GI50 (HCT-116) of the same molecule?
The GI50 was 18.8 µM (inactive).

And the GI50 (HCT-15)?
Its GI50 is 35.4 µM.

And the GI50 (HL-60)?
The GI50 was 22.8 µM (inactive).

What about the GI50 (HOP-18) of the same molecule?
The GI50 was 25.5 µM (inactive).

And the GI50 (HOP-62)?
Its GI50 is 21.5 µM (inactive).

What about the GI50 (HOP-92) of the same molecule?
Its GI50 is 14.2 µM (inactive).

And the GI50 (HT-29)?
Its GI50 is 17 µM (inactive).

What about the GI50 (IGROV-1) of the same molecule?
The GI50 was 19.3 µM (inactive).

What about the GI50 (K562) of the same molecule?
The GI50 was 21.8 µM (inactive).

What about the GI50 (KM-20L2) of the same molecule?
Its GI50 is 16.4 µM (inactive).

And the GI50 (KM12)?
The GI50 was 17.1 µM (inactive).

What about the GI50 (LOX IMVI) of the same molecule?
The GI50 was 17.1 µM (inactive).

And the GI50 (LXFL 529)?
The GI50 was 13.5 µM (inactive).

What about the GI50 (M19-MEL) of the same molecule?
The GI50 was 18.8 µM (inactive).

What about the GI50 (MOLT-4) of the same molecule?
The GI50 was 16.2 µM (inactive).

And the GI50 (Malme-3M)?
The GI50 was 14.6 µM (inactive).

What about the GI50 (NCI-H226) of the same molecule?
Its GI50 is 21.2 µM (inactive).

And the GI50 (NCI-H23)?
The GI50 was 23.2 µM (inactive).

And the GI50 (NCI-H460)?
Its GI50 is 19.3 µM (inactive).

What about the GI50 (NCI-H522) of the same molecule?
Its GI50 is 22.8 µM (inactive).

And the GI50 (OVCAR-3)?
Its GI50 is 13.2 µM (inactive).

And the GI50 (OVCAR-4)?
Its GI50 is 20.6 µM (inactive).

What about the GI50 (OVCAR-5) of the same molecule?
The GI50 was 27.5 µM (inactive).

And the GI50 (OVCAR-8)?
Its GI50 is 16.2 µM (inactive).

And the GI50 (RPMI-8226)?
The GI50 was 17.1 µM (inactive).

What about the GI50 (RXF 393) of the same molecule?
The GI50 was 16.1 µM (inactive).

What about the GI50 (RXF 631) of the same molecule?
Its GI50 is 27.3 µM (inactive).

What about the GI50 (SF-268) of the same molecule?
The GI50 was 17.2 µM (inactive).

And the GI50 (SF-295)?
The GI50 was 20.6 µM (inactive).

And the GI50 (SF-539)?
The GI50 was 17.8 µM (inactive).

And the GI50 (SK-MEL-28)?
Its GI50 is 15 µM (inactive).

And the GI50 (SK-MEL-2)?
The GI50 was 15.8 µM (inactive).

And the GI50 (SN12C)?
Its GI50 is 17.9 µM (inactive).

What about the GI50 (SNB-19) of the same molecule?
The GI50 was 15.1 µM (inactive).

And the GI50 (SNB-75)?
The GI50 was 17.6 µM (inactive).

What about the GI50 (SNB-78) of the same molecule?
The GI50 was 29.2 µM (inactive).

And the GI50 (SR)?
The GI50 was 20.3 µM (inactive).

And the GI50 (SW-620)?
Its GI50 is 24.1 µM (inactive).

And the GI50 (TK-10)?
The GI50 was 27.7 µM (inactive).

What about the GI50 (U-251) of the same molecule?
The GI50 was 15.3 µM (inactive).

And the GI50 (UACC-257)?
The GI50 was > 10 µM (inactive).

What about the GI50 (UO-31) of the same molecule?
Its GI50 is 47.6 µM (inactive).

And the GI50 (XF498)?
Its GI50 is 14.1 µM (inactive).
